Molecules are shown by their SMILES. “Also recorded” adds a separate entry of the source.

Assay type in all cases: in vivo, human
The test system of series [1] is infecundity considered to be caused by an abnormality in the immune system. The series is described as follows: Tacrolimus treatment of infecundity: embryo transplantation outcome. The conditions noted are these: tacrolimus 4 mg/day oral (2 mg morning, 2 mg evening); after five unsuccessful embryo transplantations. As to the method:
Two years later, […] hoped to have a second child but suffered from infecundity and was treated for sterility by in vitro fertilization; however, since the treatment was unsuccessful after five embryo transplantations, a close examination of the immune system was conducted. At that time, a marked increase (24.9) in the Th1/Th2 (Th1 32.4, Th2 1.3) ratio was recognized, the illness was judged as infecundity considered to be caused by an abnormality in the immune system, and a tacrolimus treatment was selected.

Another series concerns Th1 cells. The series is described as follows: Analysis of Th1 cells and Th2 cells by flow cytometry. The conditions noted are these: maternal blood; week 28 of pregnancy; tacrolimus 4 mg/day oral. As to the method: For the purpose of evaluating the baseline value of the Th1/Th2 cell ratio, a total of 10 ml of venous blood was collected. Th1 cells and Th2 cells were determined by detecting the production of intracellular interferon (IFN)-γ and IL-4. Specific staining of lymphocytes was performed by incubating whole blood together with anti-CD4-PC5 or anti-CD8-PC5-conjugated monoclonal antibody (rAbs) (Beckman Coulter, Inc., Fullerton, Ca, USA). Red blood cells (RBCs) were removed by hemolysis (using FACS Lysing solution; Becton, Dickinson and Company, BD 134 Biosciences, Franklin Lake, N.J., USA), and lymphocytes were analyzed using flow cytometry (FACSCalibur; Becton, Dickinson and Company). Activated whole blood samples were surface-stained using anti-CD4-PC5-conjugate (Abs), and then RBC hemolysis and specific intracellular staining using FastImmune (trademark) IFN-γ-FITC/IL-4-PE (Becton, Dickinson and Company) were carried out in sequence according to the manufacturer's instructions for use. Th1 cells were defined as CD4^+ lymphocytes accompanied by intracellular IFN-γ but not by intracellular IL-4. Th2 cells were detected as CD4^+ lymphocytes accompanied by intracellular IL-4 but not by intracellular IFN-γ. The ratio of intracellular IFN-γ-positive Th cells with respect to intracellular IL-4-positive Th cells was expressed as the Th1/Th2 cell ratio.

In series [2] the test system is blood type incompatible pregnancy with negative maternal Rho (D) and positive fetal Rho (D). Put plainly: Treatment of blood type incompatible pregnancy with tacrolimus: fetal and neonatal outcome. The text has this: The patient is a person having blood type A. The patient suffering from a blood type incompatible pregnancy with negative maternal Rho (D) and positive fetal Rho (D) was subjected to the following treatments. That is, at the time of the first pregnancy, anti-D immunoglobulin was not administered during pregnancy, sensitization was effected before delivery, and the anti-D antibody titer at the time of delivery was 8-fold. In week 39, they gave birth by emergency cesarean section due to placental abruption. […] The anti-D antibody titer obtained immediately after the establishment of pregnancy was 4-fold; however, the titer reached 16-fold in week 24 and reached 32-fold in week 26 (FIG. 1, upper part). After that, migration of fetal antigens to the parent's body via the placenta was assumed to further increase, and preparation of plasmapheresis and fetal blood transfusion was initiated in preparation for a rapid increase in the anti-D antibody titer. […] Furthermore, the blood flow velocity in the middle cerebral artery and the estimated body weight of the fetus were measured by fetal ultrasonography.

Another series relates to anti-D antibody. The series is described as follows: Anti-D antibody titer by indirect Coombs test in a patient treated with tacrolimus. Here is the method:
The measurement is carried out by the indirect Coombs test. The indirect Coombs test is a test in which an anti-immunoglobulin antibody is added to a mixture of the blood serum of a patient and the blood of a healthy person to examine whether a hemagglutination reaction occurs (irregular antibody present in the blood serum is detected) (for the Coombs test, see, for example, Nissan Women's Journal Vol. 59, No. 10, N-617-N-623). The patient is a person having blood type A. The patient suffering from a blood type incompatible pregnancy with negative maternal Rho (D) and positive fetal Rho (D) was subjected to the following treatments. That is, at the time of the first pregnancy, anti-D immunoglobulin was not administered during pregnancy, sensitization was effected before delivery, and the anti-D antibody titer at the time of delivery was 8-fold. In week 39, they gave birth by emergency cesarean section due to placental abruption. […] The anti-D antibody titer obtained immediately after the establishment of pregnancy was 4-fold; however, the titer reached 16-fold in week 24 and reached 32-fold in week 26 (FIG. 1, upper part). After that, migration of fetal antigens to the parent's body via the placenta was assumed to further increase, and preparation of plasmapheresis and fetal blood transfusion was initiated in preparation for a rapid increase in the anti-D antibody titer. […] Furthermore, the blood flow velocity in the middle cerebral artery and the estimated body weight of the fetus were measured by fetal ultrasonography.

The nature of series [3]: Concentration of tacrolimus in the cord blood by chemiluminescence immunoassay (ECLIA). The settings on record: cord blood at delivery, maternal dose 5 mg/day oral.
The mark [4] stands for this setting: fetal ultrasonography, tacrolimus 4 then 5 mg/day oral.

As for `C=CCC1/C=C(\C)CC(C)CC(OC)C2OC(O)(C(=O)C(=O)N3CCCCC3C(=O)OC(/C(C)=C/C3CCC(O)C(OC)C3)C(C)C(O)CC1=O)C(C)CC2OC` (centres unmarked) [tacrolimus, 17-Allyl-1,14-dihydroxy-12-[2-(4-hydroxy-3-methoxycyclohexyl)-1-methylvinyl]-23,25-dimethoxy-13,19,21,27-tetramethyl-11,28-dioxa-4-azatricyclo[22.3.1.04,9]octacos-18-ene-2,3,10,16-tetraone], the establishment of pregnancy result in series [1] was “Pregnancy was established by a single embryo transplantation”. Besides, in the series on Th1 cells, the Th1 cell population entry is recorded as “showed a tendency of increase again”. The “malformations and physical functions of the child” value in series [2] (child at birth, maternal tacrolimus during the entire pregnancy) was “no external malformations or visceral malformations and no problem with physical functions”. The “birth weight of the child” value in series [2] (delivery on day 2 of week 37) turned out to be 2834 g. Besides, the “fetal anemia (increased blood flow velocity in the middle cerebral artery)” value in series [2] (setting [4]) was “without observing any fetal anemia; also recorded: fetal anemia did not develop during the entire course of pregnancy”. The “growth of the fetus (estimated body weight)” value in series [2] (setting [4]) is reported as “The body weight smoothly increased; also recorded: growth of the child occurred without any problem”. The “maternal and fetal conditions / course of pregnancy” value in series [2] (tacrolimus 4 then 5 mg/day oral) is listed as “stable without complications”. Moreover, the “anti-D antibody titer in the cord blood” value in the series with anti-D antibody (cord blood at delivery) is listed as “double”. In addition, in the series on anti-D antibody (maternal, after dose increase to 5 mg/day in week 28 of pregnancy), the “course of anti-D antibody titer / anti-D antibody production” value was “the titer did not further increase and was stabilized; also recorded: the expected increase in the anti-D antibody titer did not occur at all; also recorded: the production of anti-D antibody was also suppressed”. The anti-D antibody titer in the series with anti-D antibody (maternal, after dose increase to 5 mg/day oral (week 28) until delivery) is reported as 32 fold; in the series with anti-D antibody (maternal, immediately after the establishment of pregnancy, tacrolimus 4 mg/day oral), 4 fold; with anti-D antibody (maternal, week 24 of pregnancy, tacrolimus 4 mg/day oral), 16 fold; with anti-D antibody (maternal, week 26 of pregnancy, tacrolimus 4 mg/day oral), 32 fold. In addition, the “concentration of tacrolimus in the cord blood” value in series [3] is listed as “lower than or equal to the detection limit value”.

The values above are taken from patent publication US20210228551A1, “THERAPEUTIC AGENT FOR HUMORAL IMMUNITY-RELATED DISEASES IN MATERNOFETAL RELATIONSHIP” (priority 2018, published 2021).
